Laboratory results reported in US8586505B2 (SDS Biotech K. K., priority 2009, dated 2013).

Assays:
Assay type in all cases: in vivo
Phytophthora infestans = experiment: whole plant or invertebrate; details: in Solanum lycopersicum, 96 h, read-out: Determination of control effect (preventive value)
[1] = test system: Pseudoperonospora cubensis; experiment: Test of examining control effect on Pseudoperonospora cubensis (potted cucumber plants); details: 96 h, 10% wettable powder adjusted to 125 ppm, 15 ml/pot sprayed on potted cucumber plants one day before spray inoculation, assessed after 1 day wet chamber and 3 days greenhouse, read-out: Determination of control effect (preventive value) on Pseudoperonospora cubensis
How it was run: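 Preventive treatment: 125 ppm sample agent solution (from 10% wettable powder) sprayed at 15 ml/pot on 2.5-leaf Sagamihanjiro cucumbers, then P. cubensis inoculated next day at 1.0×10^4 cells/ml. Incubation was 1 day wet at 21° C plus 3 days greenhouse. Lesion area rate compared with untreated gives preventive value (≥60% high).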

Sphaerotheca fuliginea = experiment: Test of examining control effect on Sphaerotheca fuliginea (potted cucumber plants); details: Podosphaera fuliginea, 336 h; 10% wettable powder adjusted to 125 ppm, 15 ml/pot sprayed on potted cucumber plants one day before spray inoculation; assessed after 14 days in greenhouse; read-out: Determination of control effect (preventive value) on Sphaerotheca fuliginea
How it was run: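 Control effect rated high at preventive value 60–100% and low below 60%, from lesion area relative to untreated plants 14 days after spray inoculation with S. fuliginea (1.0×10^5 cells/ml). Compound applied at 125 ppm as wettable-powder spray one day before inoculation, on 2nd-leaf-stage Sagamihanjiro cucumber.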

SMILES	pest or weed control at 125 ppm (Phytophthora infestans) [%]	pest or weed control at 125 µg/mL [1] [%]	pest or weed control at 125 µg/mL (Sphaerotheca fuliginea) [%]
Cc1ccc(Oc2ccc(C#CCCNc3ncnc4ccccc34)cc2)cc1 [compound 186]	0 to 60	0 to 60	60 to 100
N#Cc1cc(F)ccc1C#CCCNc1ncnc2ccccc12 [compound 170]	60 to 100	60 to 100	60 to 100
COCc1ccccc1C#CCCNc1ncnc2ccc(-c3ccc(F)cc3)cc12 [compound 336]	0 to 60	60 to 100	0 to 60
CC(CC#Cc1ccc(S(C)(=O)=O)cc1Cl)Nc1ncnc2sccc12 (stereo not drawn) [compound 256]	60 to 100	60 to 100	60 to 100
C(#Cc1ccsc1)CCNc1ncnc2ccccc12 [compound 205]	60 to 100	60 to 100	60 to 100
C(#Cc1cscn1)CCNc1ncnc2ccccc12 [compound 210]	60 to 100	60 to 100	60 to 100
COc1cc(C#CCCNc2ncnc3ccccc23)ccn1 [compound 199]	60 to 100	60 to 100	60 to 100
COCc1ccccc1C#CCCNc1ncnc2ccc(-c3cccc(F)c3)cc12 [compound 335]	0 to 60	60 to 100	0 to 60
COCc1ccsc1C#CCCNc1ncnc2ccccc12 [compound 207]	60 to 100	60 to 100	60 to 100
COCc1ccccc1C#CCCNc1ncnc2cccc(Cl)c12 [compound 314]	0 to 60	60 to 100	60 to 100
COCc1ccccc1C#CCCNc1ncnc2c(C)cccc12 [compound 325]	60 to 100	60 to 100	60 to 100
Nc1c(Cl)ncnc1NCCC#Cc1ccccc1C(F)(F)F [compound 368]	0 to 60	60 to 100	60 to 100
COCc1nc(C#CCCNc2ncnc3sccc23)cs1 [compound 72]	60 to 100	60 to 100	60 to 100
C(#Cc1ccc2c(c1)CCO2)CCNc1ncnc2ccccc12 [compound 157]	0 to 60	60 to 100	60 to 100
CS(=O)(=O)Nc1ccc(C#CCCNc2ncnc3ccccc23)cc1 [compound 123]	0 to 60	60 to 100	0 to 60
C(#Cc1csc(-c2cccs2)n1)CCNc1ncnc2sccc12 [compound 79]	0 to 60	60 to 100	60 to 100
CC(CC#Cc1nccs1)Nc1ncnc2sccc12 (stereo not drawn) [compound 265]	60 to 100	60 to 100	60 to 100
COCc1ccccc1C#CCCNc1ncnc(C)c1Cl [compound 362]	60 to 100	60 to 100	60 to 100
FC(F)(F)c1ccc(C#CCCNc2ncnc3sccc23)cc1 [compound 27]	0 to 60	60 to 100	60 to 100
COCc1ccccc1C#CCCNc1ncnc2ccc(Br)cc12 [compound 321]	0 to 60	60 to 100	60 to 100
